Data: patent publication US20110301159A1, “KINASE INHIBITOR COMPOUNDS” (UNIVERSITY OF SOUTH FLORIDA, priority 2008, published 2011)
In brackets after ≈: the same amount, converted by molar mass. Where two headings read alike, the source gives them in different places. Each block holds one molecule with its values, some of them ahead of it.

Columns and labels:
[1] = test system: Jak2-V617F expressing Human Erythroleukemia (HEL) cells; test: Inhibition of Jak2-V617F dependent HEL cell growth (trypan blue viable cell count); type: cell-based; conditions: for % Growth Inhibition / inhibition at 25 µM: 25 uM inhibitor; for inhibition at 25 µM: Homo sapiens, HEL
Experimental: (§1) Methods: Jak2-V617F expressing Human Erythroleukemia (HEL) cells were plated in 96 well plates at ˜40,000 cells per well and incubated with either vehicle control (0.25% DMSO) or with 25 uM of Jak2 kinase inhibitors. Viable cell numbers were then determined at the times (0, 4, 24, 48 and 72 hours) via trypan blue exclusion and a hemocytometer. Aqueous solubility was determined using a MultiScreen® Solubility Filter Plate (Millipore) (see Quantitative method to determine drug aqueous solubility: optimization and correlation to standard methods; http://www.millipore.com/techpublications/tech1/an1730en00) and a Spectrophotometer.

[2] = test system: Marrow derived mononuclear cells (polycythemia vera, Jak2-V617F positive); test: Ex vivo colony formation of marrow cells from a polycythemia vera patient; type: cell-based, human; conditions: 25 or 2.5 μM
Experimental: Methods: Marrow derived mononuclear cells were obtained from a person, who has been confirmed to have polycythemia vera and also identified as Jak2-V617F positive. Marrow derived mononuclear cells were washed three times in IMDM media and plated at 4×10^5 cells/mL in 1 mL methylcellulose media (0.9% methylcellulose, 30% heat inactivated FCS, 0.1 mM 2-mercaptoethanol, 0.9% BSA, 0.05% NaHCO3, 2 mM/L glutamine, penicillin, streptomycin, 50 ng/mL SCF, and 20 ng/mL IL-3 (Stem Cell Technologies, Vancouver, BC). Vehicle control (DMSO at 0.25%) or inhibitors were added at the indicated concentrations (25 or 2.5 μM). EPO (1 U/mL) was also added as indicated. The cultures were then incubated at 37° C. and 5% CO2 until assessment of colony formation at day 14. Results were expressed as the average number of colonies from duplicate cultures per 4×10^5 cells.

[3] = test system: Jak2-V617F expressing HEL cells; test: Apoptosis assay (Annexin V/Propidium Iodide FACS); type: cell-based, Human; conditions: 25 μM, 48 hours
Experimental: Jak2-V617F expressing HEL cells were exposed to either vehicle control (DMSO), or 25 μM of an inhibitor for 48 hours. The percentage of apoptotic cells was then determined via Annexin V/Propidim Iodide FACS analysis.

[4] = test system: Jak2-V617F expressing Human Erythroleukemia (HEL) cells; test: Inhibition of Jak2-V617F dependent HEL cell growth (trypan blue viable cell count); type: cell-based; conditions: for IC50: read-out: IC50 for inhibition on Jak2-V617F dependent HEL cells proliferation
[5] = Aqueous solubility (MultiScreen Solubility Filter Plate); type: physicochemical; conditions: MultiScreen Solubility Filter Plate (Millipore), kinetic from dmso stock
Experimental: as §1

HEL cells = test: Jak2-V617F-induced hematopoietic disease in NOD-SCID mouse model (HEL cell injection); type: in vivo, NOD-SCID mice
Experimental: Methods: In the experiment, NOD-SCID mice, N=36. were randomized into 6 groups (n=6). Baseline peripheral blood samples and weights were taken at Day 0. At day 7, 2×10^6 HEL cells were injected into each mouse in Groups 2, 3, 4 and 5. […] Then all the mice were euthanized.
In the experiment, the following measurable endpoints were assessed. For peripheral blood, total white blood cell (WBC) counts, the percentage of blast cells, the percentage of nucleated red blood cells (RBC), and Hematocrits were measured. For bone marrow, quantitative cellularity, and Myeloid cell to erythroid cell (M:E) ratio were assessed. Further, toxicity in spleen, brain, kidney, liver, and lung using histological analysis is assessed.
Peripheral blood samples were obtained via weekly submandibular bleeds using a 21 gauge needle. Blood samples were smeared onto glass slides, stained, and dried. Peripheral blast cells on each slide were then tabulated using a pathology light microscope. The average percent of peripheral blast cells for each treatment group was then graphed as a function of time.
At necropsy, femurs from each animal were formalin fixed, de-calcified and then parrafin embedded. Parrafin sections were then made, stained with hematoxylin and eosin and dried. The number of myeloid and erythroid cells were then tabulated by a veterinary pathologist who was blind to the treatment groups. The ratio of myeloid to erythroid cells was then graphed as a function of treatment group. Further, the average number of mature and immature erythroid cells was then graphed as a function of treatment group.
Additionally, at necropsy, animals were weighed one final time and spleens were then removed from each mouse. The wet weight of each spleen was recorded and the spleen weight to body weight ratio was graphed as a function of treatment group.

recombinant p60c-src = biological target: T1, recombinant p60c-src (Homo sapiens, UniProt P12931); test: c-Src assay (in vitro kinase reaction, anti-Src pY418 Western blot); type: biochemical; conditions: 25 uM, 20 minutes, room temperature
T1 construct: purchased Upstate Biotechnology
Experimental: Approximately 4 μL (12 units) of catalytically active recombinant p60c-src (Upstate Biotechnology) was incubated in 46 μL of in vitro kinase reaction buffer (50 mM HEPES, pH 7.6, 5 mM MnCl2, 5 mM MgCl2, 100 mM NaCl, 0.5 mM DTT), either in the presence of DMSO or 25 uM Z3. The reactions were incubated for 20 minutes at room temperature and then
terminated by addition of SDS-containing buffer. The samples were Western blotted with an anti-Src (pY418) polyclonal antibody (Biosource).

[6] = test system: Marrow derived mononuclear cells (Essential Thrombocythemia, Jak2-V617F positive); test: Ex vivo Jak2-V617F dependent megakaryocyte colony formation (essential thrombocythemia patient); type: cell-based, human; conditions: 25 uM, day 14
Description: Marrow derived mononuclear cells were taken from a person, who was confirmed Essential Thrombocythemia and being Jak2-V617F positive.

Molecule: (Z)- and (E)-4,4′-(But-2-ene-2,3-diyl)bis(2-((diethylamino)methyl)phenol) [NB-2]
- % Growth Inhibition ([1]; 25 µM): 53%
- pathologic cell growth (colony formation at day 14) [2]: reduce pathologic cell growth
- % of Cells in Apoptosis [3]: 28%
- suppressing HEL cell growth compared with G6 [3]: not as effective as G6
- IC50 ([4]; HEL cells): ~9 µM

Molecule: Oc1cc(/C=C/c2ccc(CN3CCCCC3)c(O)c2)ccc1CN1CCCCC1 [NB-12, (Z)- and (E)-5,5′-(Ethene-1,2-diyl)bis(2-(piperidin-1-ylmethyl)phenol)]
- inhibition at 25 µM [1]: 100%
- solubility [5]: 484 µM (≈ 197 µg/mL)

Molecule: CCN(CC)Cc1ccc(/C(C)=C(\C)c2ccc(CN(CC)CC)c(O)c2)cc1O [NB-8, (Z)- and (E)-5,5′-(But-2-ene-2,3-diyl)bis(2-((diethylamino)methyl)phenol).2HCl]
- inhibition at 25 µM [1]: 100%
- solubility [5]: 272 µM

Molecule: CCN(CC)Cc1ccc(/C=C/c2ccc(CN(CC)CC)c(O)c2)cc1O [NB-10, (Z)- and (E)-5,5′-(Ethene-1,2-diyl)bis(2-((diethylamino)methyl)phenol).2HCl]
- inhibition at 25 µM [1]: 100%
- solubility [5]: 474 µM

Molecule: (Z) and (E)-4,4′-(Hex-3-ene-3,4-diyl)bis(2-((diethylamino)methyl)phenol) [Compound G6]
- time required to inhibit Jak2-V617F dependent cell proliferation by 50% [1]: ~11 h
- % Growth Inhibition [1]: 100%
- pathologic cell growth (colony formation at day 14) [2]: reduce pathologic cell growth
- Peripheral blood counts of granulocytes, neutrophils, and eosinophils (HEL cells; 10 mg/kg/day): all normal
- bone marrow necrosis (HEL cells; 10 mg/kg/day): 2 of 6
- histology of brain, kidney, liver, and lung (HEL cells; 10 mg/kg/day): histologically normal
- splenic necrosis (HEL cells; 10 mg/kg/day): 3 of 6
- percentage of blast cells in peripheral blood (HEL cells; 0.1-10 mg/kg/day): reduces the percentage of blast cells in peripheral blood in a dose-dependent manner
- numbers of mature and immature Erythroid cells in bone marrow (HEL cells; mouse, in vivo): reduced numbers of mature Erythroid cells, not immature Erythroid cells
- c-Src tyrosine kinase activity (recombinant p60c-src): no effect on c-Src tyrosine kinase activity
- % of Cells in Apoptosis [3]: 79%
- Jak2-V617F dependent megakaryocyte colony formation [6]: blocks Jak2-V617F dependent megakaryocyte colony formation
- Jak2-V617F dependent HEL cell proliferation, dose and time dependence ([4]; HEL cells): Inhibits Jak2-V617F Dependent HEL Cell Proliferation in both a dose and time dependent manner
- IC50 ([4]; HEL cells): ~4 µM

Molecule: C/C(=C(/C)c1ccc(CN(C)C)c(O)c1)c1ccc(CN(C)C)c(O)c1 [NB-4, (Z)- and (E)-5,5′-(But-2-ene-2,3-diyl)bis(2-((dimethylamino)methyl)phenol)]
- inhibition at 25 µM [1]: 101%
- solubility [5]: 478 µM (≈ 169 µg/mL)

Molecule: C/C(=C(\C)c1ccc(CN(C)C)c(O)c1)c1ccc(CN(C)C)c(O)c1 [NB-9, (Z)- and (E)-5,5′-(But-2-ene-2,3-diyl)bis(2-((dimethylamino)methyl)phenol).2HCl]
- inhibition at 25 µM [1]: 101%
- solubility [5]: 384 µM

Continued, in another order:

- solubility [5]: 460 µM (≈ 189 µg/mL)
Molecule: CCN(CC)Cc1ccc(/C(C)=C(/C)c2ccc(CN(CC)CC)c(O)c2)cc1O [NB-3, (Z)- and (E)-5,5′-(But-2-ene-2,3-diyl)bis(2-((diethylamino)methyl)phenol)]
- inhibition at 25 µM [1]: 101%

- solubility [5]: 509 µM (≈ 195 µg/mL)
Molecule: CCN(CC)Cc1ccc(/C=C\c2ccc(CN(CC)CC)c(O)c2)cc1O [NB-5, (Z)- and (E)-5,5′-(Ethene-1,2-diyl)bis(2-((diethylamino)methyl)phenol)]
- inhibition at 25 µM [1]: 101%

- solubility [5]: 538 µM (≈ 176 µg/mL)
Molecule: CN(C)Cc1ccc(/C=C\c2ccc(CN(C)C)c(O)c2)cc1O [NB-6, (Z)- and (E)-5,5′-(Ethene-1,2-diyl)bis(2-((dimethylamino)methyl)phenol)]
- inhibition at 25 µM [1]: ~19%

- solubility [5]: 533 µM (≈ 204 µg/mL)
- IC50 ([4]; Homo sapiens, HEL): ~4 µM
Molecule: CCN(CC)Cc1cc(/C=C/c2ccc(O)c(CN(CC)CC)c2)ccc1O [NB-1, (Z)- and (E)-4,4′-(Ethene-1,2-diyl)bis(2-((diethylamino)methyl)phenol)]
- inhibition at 25 µM [1]: 98%
- pathologic cell growth (colony formation at day 14) [2]: reduce pathologic cell growth
- % of Cells in Apoptosis [3]: 66%
- suppressing HEL cell growth compared with G6 [3]: behaves similarly to G6

- solubility [5]: 495 µM (≈ 201 µg/mL)
Molecule: Oc1cc(/C=C\c2ccc(CN3CCCCC3)c(O)c2)ccc1CN1CCCCC1 [NB-7, (Z)- and (E)-5,5′-(Ethene-1,2-diyl)bis(2-(piperidin-1-ylmethyl)phenol)]
- inhibition at 25 µM [1]: 99%
